From article PMC4445002, “Efficient inhibition of tumor angiogenesis and growth by a synthetic peptide blocking S100A4-methionine aminopeptidase 2 interaction” (Molecular Therapy. Methods & Clinical Development, 2015)

Experiments:
Format in all cases: cell-based, mouse
[1] = tested on: vinculin and integrin β1 focal adhesions in MSS31 cells; assay: Focal adhesion and F-actin immunofluorescence; settings: 5 μg/well, 18 hours
Description: (§1) Figure 7 Stimulation of the formation of focal contacts by the NBD peptide. MSS31 cells incubated with atelocollagen alone or the peptide/atelocollagen complexes were subjected to immunofluorescent staining and western blot analysis. (a) Formation of focal adhesions. The cells were immunostained with antivinculin or anti-integrin β1 antibody followed by Alexa Fluor 488-conjugated secondary antibody. F-actin was visualized with Atto 647N-Phalloidin. Nuclei were stained with DAPI. Scale bars: 50 μm. (b) Western blot analysis of focal adhesion proteins. Total cellular proteins were subjected to immunoblot analysis. (c) Relative expression level of vinculin (VCN), integrin β1 (ITGβ1) and p-FAK. The band intensity of VCN and ITGβ1 and p-FAK relative to that of β-actin and total FAK, respectively, was measured using ImageJ software and normalized to control cells.
MSS31 cells cultured in six-well plates were incubated with 5 μg/well of the NBD or the CBD peptide/atelocollagen complex or atelocollagen alone for 18 hours in Culture Slides (4 wells, BD Falcon) and were washed three times with DPBS and fixed for 10 minutes at 4 °C with 4% formaldehyde in DPBS. After permeabilizing with 0.5% Triton X-100 in DPBS for 4 minutes, the cells were treated with 3% bovine serum albumin in DPBS containing 0.1% glycine for 1 hour to block nonspecific binding sites. After washing with DPBS, the cells were incubated for 1 hour with primary antibodies, rinsed, and then stained with secondary antibodies. The primary antibodies used were polyclonal anti-S100A4, monoclonal anti-NMIIA antibody, monoclonal antivinculin antibody and polyclonal anti-integrin β1 antibody. The secondary antibody was Alexa Fluor 488-conjugated goat antirabbit IgG (Invitrogen) or Alexa Fluor 594-conjugated goat antimouse IgG (Invitrogen). F-Actin was visualized with Atto 647N-Phalloidin (Sigma-Aldrich). Nuclei were stained with 1 μg/ml DAPI. The slides were mounted with VECTASHIELD Mounting Medium (Vector Laboratories). The cells were observed under a confocal laser scanning microscope (Fluoview FV1000, Olympus, Japan).

MSS31 cells = assay: Cell cycle progression by BrdU flow cytometry; settings: 9 hours
Description: Since the overexpression of the SBD in MSS31 cells caused DNA synthesis inhibition, we examined the effect of the NBD peptide on cell cycle progression by flow cytometry after treating the cells with various concentrations of the synthetic peptides (0–1.0 μg/well) complexed with atelocollagen for 9 hours.
Figure 8 Inhibition of cell cycle progression and cell growth by the NBD peptide. MSS31 cells were treated with atelocollagen alone or the NBD or the CBD peptide/atelocollagen complex in vitro. (a) Cell cycle progression. The cells were labeled with BrdU and then subjected to flow cytometry. (b) Cell growth. The values represent cell growth rate relative to that of control cells that is set to 100%. The NBD peptide inhibited the growth of MSS31 cells compared to the control cells (atelocollagen alone). Data represent the mean ± SD (n = 4), P < 0.01. TEXT PRINTED IN THE PICTURE: (a) NBD: S:13.2%; G1:70.7%; G2/M:9.6% | (a) CBD: S:32.1%; G1:55.4%; G2/M:8.9% | (a) peptide(−): S:36.7%; G1:49.6%; G2/M:9.7%
MSS31 cells treated with 1.0 μg/ml of the NBD peptide or the CBD peptide/atelocollagen were labeled with 10 μmol/l BrdU for 6 hours. Atelocollagen alone was used as a control. Flow cytometric analysis was carried out using the FITC BrdU Flow Kit (BD Biosciences Pharmigen, San Diego, CA) following the manufacturer’s instructions.

[2] = tested on: FAK (Tyr397) in MSS31 cells; assay: FAK Tyr397 phosphorylation by western blot; settings: vs control and CBD peptide-treated cells; 5 μg/well, 18 hours
Description: as §1
MSS31 cells cultured in six-well plates were incubated with 5 μg/well of the NBD or the CBD peptide/atelocollagen complex or atelocollagen alone for 18 hours and were lysed in M-PER Mammarian Protein Extraction Reagent (Thermo Fisher Scientific, Waltham, MA) containing complete, EDTA-free, EASYpack (Roche Applied Science, Penzberg, Upper Bavaria, Germany) and Halt Phosphatase Inhibitor Cocktail (Thermo Fisher Scientific). The lysates was used for immunoblot analysis. […]

S100A4 in MSS31 cells = assay: S100A4 expression in peptide-loaded cells by western blot; settings: atelocollagen complex; Supplementary Figure S3
[3] = 0–1.0 μg/well with atelocollagen

NBD: N-terminal 39 amino acid sequence of SBD, from Arg170 to Ileu208; corresponding to MetAP2 (170–208) (REAAEAHRQVRKYVMSWIKPGMTMIEICEKLEDCSRKLI)
number of focal adhesions per cell ([1]; atelocollagen complex, vinculin and integrin β1 staining): greater number of vinculin- and integrin β1-containing focal adhesions per cell than the untreated and the CBD peptide-treated cells
distribution of focal adhesions ([1]; immunofluorescence): focal adhesions were distributed uniformly
formation of actin filaments ([1]; phalloidin staining): Formation of actin filaments was also prominent
effect on G2/M phase (MSS31 cells; [3]): not significantly affected
effect on cell cycle progression (MSS31 cells; [3]): leads to cell cycle arrest in the G1/S phase
cells in G2/M phase (MSS31 cells; atelocollagen complex, BrdU flow cytometry, representative study, without peptide 9.7%): 9.6%
cells in S phase (MSS31 cells; atelocollagen complex, BrdU flow cytometry, representative study, without peptide 36.7%): 13.2%
cells in G1 phase (MSS31 cells; atelocollagen complex, BrdU flow cytometry, representative study, without peptide 49.6%): 70.7%
phosphorylation of Tyr397 of FAK [2]: no significant increase in the phosphorylation of Tyr397 of FAK
expression level of S100A4 (S100A4 in MSS31 cells): no apparent change in the expression level of S100A4
